Data reported in PubChem BioAssay AID256 (DTP/NCI, 2004).
Values joined by “and” are separate entries in the source; they are usually repeats but may differ in a detail not shown here. Identical values can stand only once. Inconclusive results and toxic doses are left out. Rule for the calls: active = survival T/C of 150% or more; inactive = T/C below 125% in these data.

System: CD2F1 mice, L1210 leukemia ip, survival T/C
Assay: NCI In Vivo Anticancer Drug Screen. Data for tumor model L1210 Leukemia (intraperitoneal) in CD2F1 (CDF1) mice
Details: higher = longer survival
Summary of the method: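 Tumor-bearing mice (transplanted tumor) were split into treated and vehicle control groups, and the measured endpoint of each treated group was divided by that of its vehicle controls.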

[1] = endpoint: mean survival time, dose: 12.5 mg/kg/injection, schedule: Q01DX009 (ip), vehicle: saline with Tween-80
[2] = endpoint: mean survival time, dose: 50.0 mg/kg/injection, schedule: Q04DX003 (ip), vehicle: saline sonified
[3] = endpoint: mean survival time, dose: 100.0 mg/kg/injection, schedule: Q01DX009 (ip), vehicle: saline
[4] = endpoint: mean survival time, dose: 200.0 mg/kg/injection, schedule: Q01DX009 (ip), vehicle: saline
[5] = endpoint: mean survival time, dose: 400.0 mg/kg/injection, schedule: Q01DX009 (ip), vehicle: saline
[6] = endpoint: mean survival time, dose: 25.0 mg/kg/injection, schedule: Q01DX009 (ip), vehicle: saline with Tween-80
[7] = endpoint: mean survival time, dose: 50.0 mg/kg/injection, schedule: Q01DX009 (ip), vehicle: saline with Tween-80
[8] = endpoint: mean survival time, dose: 100.0 mg/kg/injection, schedule: Q01DX009 (ip), vehicle: saline with Tween-80
[9] = endpoint: mean survival time, dose: 100.0 mg/kg/injection, schedule: Q04DX002 (ip), vehicle: saline with Tween-80
[10] = endpoint: mean survival time, dose: 200.0 mg/kg/injection, schedule: Q01DX009 (ip), vehicle: saline with Tween-80
[11] = endpoint: mean survival time, dose: 100.0 mg/kg/injection, schedule: Q04DX003 (ip), vehicle: saline with Tween-80
[12] = endpoint: mean survival time, dose: 200.0 mg/kg/injection, schedule: Q04DX003 (ip), vehicle: saline with Tween-80
[13] = endpoint: mean survival time, dose: 400.0 mg/kg/injection, schedule: Q04DX003 (ip), vehicle: saline with Tween-80

Measured: T/C

CCCCCCCCCCCCNC(=O)c1ccc[n+](Cc2ccc(Cl)c(Cl)c2)c1
inactive: [1] 98 % of control | endpoint: mean survival time, dose: 12.5 mg/kg/injection, schedule: Q04DX003 (ip), vehicle: saline sonified 98 % of control | endpoint: mean survival time, dose: 25.0 mg/kg/injection, schedule: Q04DX003 (ip), vehicle: saline sonified 98 % of control | [2] 95 % of control

CC([NH-])CC(C)[NH-].[I][Pt+2][I] (centres undefined)
inactive: endpoint: mean survival time, dose: 6.25 mg/kg/injection, schedule: Q04DX003 (ip), vehicle: saline with Tween-80 113 % of control | endpoint: mean survival time, dose: 12.5 mg/kg/injection, schedule: Q04DX003 (ip), vehicle: saline with Tween-80 121 % of control

CC1(C)CC(=O)NC1=O
inactive: [3] 100 % of control | [4] 102 % of control | [5] 94 % of control

CNc1nc(SC)nc2c1cnn2C1OC(CO)C(O)C1O (centres undefined)
inactive: endpoint: median survival time, dose: 10.75 mg/kg/injection, schedule: Q01DX005 (ip), vehicle: saline with Tween-80 103 % of control | endpoint: median survival time, dose: 21.5 mg/kg/injection, schedule: Q01DX005 (ip), vehicle: saline with Tween-80 97 % of control | endpoint: median survival time, dose: 43.0 mg/kg/injection, schedule: Q01DX005 (ip), vehicle: saline with Tween-80 107 % of control | endpoint: median survival time, dose: 86.0 mg/kg/injection, schedule: Q01DX005 (ip), vehicle: saline with Tween-80 100 % of control

O=C(CCl)c1ccc(Cl)cc1
inactive: endpoint: mean survival time, dose: 12.0 mg/kg/injection, schedule: Q01DX009 (ip), vehicle: saline with Tween-80 102 % of control | endpoint: mean survival time, dose: 24.0 mg/kg/injection, schedule: Q01DX009 (ip), vehicle: saline with Tween-80 104 % of control | endpoint: mean survival time, dose: 48.0 mg/kg/injection, schedule: Q01DX009 (ip), vehicle: saline with Tween-80 103 % of control

CCN(CC)CCCN(CC(=O)O)CC(=O)O
inactive: endpoint: mean survival time, dose: 100.0 mg/kg/injection, schedule: Q01DX001 (ip), vehicle: saline 103 % of control

O=c1nc(Oc2ccccc2)nc2ncccn12
inactive: endpoint: mean survival time, dose: 3.12 mg/kg/injection, schedule: Q01DX009 (ip), vehicle: saline with Tween-80 100 % of control and 108 % of control | endpoint: mean survival time, dose: 6.25 mg/kg/injection, schedule: Q01DX009 (ip), vehicle: saline with Tween-80 100 % of control and 101 % of control | [1] 97 % of control and 101 % of control | [6] 98 % of control and 99 % of control | [7] 97 % of control and 102 % of control

CCCCOC(=O)c1cnc[nH]c1=O
inactive: endpoint: mean survival time, dose: 100.0 mg/kg/injection, schedule: Q01DX001 (ip), vehicle: saline with Tween-80 95 % of control | endpoint: mean survival time, dose: 200.0 mg/kg/injection, schedule: Q01DX001 (ip), vehicle: saline with Tween-80 93 % of control | endpoint: mean survival time, dose: 400.0 mg/kg/injection, schedule: Q01DX001 (ip), vehicle: saline with Tween-80 96 % of control

c1ccc2c(c1)[nH]c1ccncc12
inactive: [6] 98 % of control | [7] 90 % of control | [8] 87 % of control

Cc1ccc(S(=O)(=O)N=S(C)(C)=O)cc1
inactive: [9] 98 % of control | endpoint: mean survival time, dose: 200.0 mg/kg/injection, schedule: Q04DX002 (ip), vehicle: saline with Tween-80 94 % of control | endpoint: mean survival time, dose: 400.0 mg/kg/injection, schedule: Q04DX002 (ip), vehicle: saline with Tween-80 94 % of control

CC1CC(C)SC(C(C)(C)C)S1 (centres undefined)
inactive: endpoint: mean survival time, dose: 12.5 mg/kg/injection, schedule: Q04DX002 (ip), vehicle: saline 105 % of control | endpoint: mean survival time, dose: 25.0 mg/kg/injection, schedule: Q04DX002 (ip), vehicle: saline 97 % of control | endpoint: mean survival time, dose: 50.0 mg/kg/injection, schedule: Q04DX002 (ip), vehicle: saline 102 % of control

CCCCCCCCCCCc1cc(=O)n(-c2cc(Cl)ccc2Cl)n1C
inactive: endpoint: mean survival time, dose: 25.0 mg/kg/injection, schedule: Q04DX002 (ip), vehicle: saline with Tween-80 96 % of control | endpoint: mean survival time, dose: 50.0 mg/kg/injection, schedule: Q04DX002 (ip), vehicle: saline with Tween-80 88 % of control | [9] 86 % of control

CCOC(=O)C1C(=O)NCC1c1ccccc1 (centres undefined)
inactive: [7] 106 % of control | [8] 101 % of control | [10] 101 % of control

CC1SC(=S)N(c2ccccc2)C1=O (centres undefined)
inactive: [11] 112 % of control | [12] 97 % of control | [13] 101 % of control

CC1(O)Nc2nc3nc[nH]c3c(=O)n2C1O (centres undefined)
inactive: endpoint: mean survival time, dose: 12.5 mg/kg/injection, schedule: Q01DX005 (ip), vehicle: water 94 % of control | endpoint: mean survival time, dose: 25.0 mg/kg/injection, schedule: Q01DX005 (ip), vehicle: water 90 % of control | endpoint: mean survival time, dose: 50.0 mg/kg/injection, schedule: Q01DX005 (ip), vehicle: water 100 % of control | endpoint: mean survival time, dose: 100.0 mg/kg/injection, schedule: Q01DX005 (ip), vehicle: water 94 % of control | endpoint: mean survival time, dose: 200.0 mg/kg/injection, schedule: Q01DX005 (ip), vehicle: water 93 % of control

C=C[Si](C)(C=C)C=C
inactive: [3] 95 % of control | endpoint: mean survival time, dose: 100.0 mg/kg/injection, schedule: Q04DX002 (ip), vehicle: saline 91 % of control | [4] 97 % of control | endpoint: mean survival time, dose: 200.0 mg/kg/injection, schedule: Q04DX002 (ip), vehicle: saline 98 % of control | [5] 93 % of control | endpoint: mean survival time, dose: 400.0 mg/kg/injection, schedule: Q04DX002 (ip), vehicle: saline 98 % of control

CCCC(O)C1CCCCC1O (centres undefined)
inactive: [8] 92 % of control | [10] 92 % of control | endpoint: mean survival time, dose: 400.0 mg/kg/injection, schedule: Q01DX009 (ip), vehicle: saline with Tween-80 96 % of control

COC(=O)c1ncccc1C(=O)O
inactive: [11] 94 % of control | [12] 86 % of control | [13] 86 % of control

NNc1ncnc2c1cnn2C1OC(CO)C(O)C1O (centres undefined)
inactive: endpoint: mean survival time, dose: 12.5 mg/kg/injection, schedule: Q01DX009 (ip), vehicle: other 103 % of control | endpoint: mean survival time, dose: 25.0 mg/kg/injection, schedule: Q01DX009 (ip), vehicle: other 103 % of control | endpoint: mean survival time, dose: 50.0 mg/kg/injection, schedule: Q01DX009 (ip), vehicle: other 103 % of control | endpoint: mean survival time, dose: 100.0 mg/kg/injection, schedule: Q01DX009 (ip), vehicle: other 110 % of control | endpoint: mean survival time, dose: 200.0 mg/kg/injection, schedule: Q01DX009 (ip), vehicle: other 112 % of control | endpoint: mean survival time, dose: 400.0 mg/kg/injection, schedule: Q01DX009 (ip), vehicle: other 89 % of control

O=[N+]([O-])c1ccc(/C=N\Nc2ccc([N+](=O)[O-])cn2)cc1
inactive: [2] 96 % of control | endpoint: mean survival time, dose: 100.0 mg/kg/injection, schedule: Q04DX003 (ip), vehicle: saline sonified 89 % of control | endpoint: mean survival time, dose: 200.0 mg/kg/injection, schedule: Q04DX003 (ip), vehicle: saline sonified 96 % of control
